Laboratory results as given in patent US20130085133A1, “ANTI-VIRAL TREATMENT AND ASSAY TO SCREENFOR ANTI-VIRAL AGENT” (Sourthern Research Institute Office of Commercialization …, priority 2010, published 2013).

Legend:
[1] = test system: respiratory syncytial virus (RSV) strain Long; assay: microbe, parasite or virus in culture; details: human respiratory syncytial virus, HEp-2, 144 h
[2] = cytotoxicity assay (percent viability of HEp-2 cells, Cell Titer-Glo); details: human, HEp-2 cells
Method: Test compounds were evaluated by measuring their antiviral activity, cell toxicity, and selectivity. Test compounds were serially diluted in a plate to plate matrix or “stacked plate” matrix. All 320 compounds in a source plate were diluted together resulting in a 10 point dose response dilution series. It was visualized as a serial dilution series proceeding vertically through a stack of plates with the high dose plate on top and the low dose plate on the bottom.
Following the six day incubation period, the assay plates were equilibrated to room temperature for 30 min and an equal volume (30 μL) of Cell Titer-Glo reagent (Promega Inc.) was added to each well using a WellMate (Matrix, Hudson, N.H.) and plates were incubated for an additional 10 min at room temperature. At the end of the incubation, luminescence was measured using a Perkin Elmer Envision™ multi-label reader (PerkinElmer, Wellesley, Mass.) with an integration time of 0.1 s.
Data was analyzed using ActivityBase software (IDBS, Inc, Guilford, UK). thirty two control wells containing cells only and twenty four wells containing cells and virus were included on each assay plate and used to calculate Z′ value for each plate and to normalize the data on a per plate basis. […] Eight ribavirin positive control wells were included on each plate for quality control purposes, but were not used in Z′ calculations. […] In the toxicity assay, results are described as percent viability and the calculation is the same.
An EC50 (for CPE inhibition) and IC50 (for cell viability) were calculated for each substance using the 4 parameter Levenburg-Marquardt algorithm with parameter A locked at 0 and parameter B locked at 100. Standard deviation, normalized chi2 and hill slope were used to evaluate the curves. Values were not extrapolated beyond the tested range of concentrations.

| Compound | EC50 [1] | CC50 at 6 days [2] |
| --- | --- | --- |
| CC(=O)CCc1c(O)nc2ccccc2c1C [AB00279389] | 14.2 µg/mL | > 25 µg/mL |
| O=S(=O)(O)c1cc(/N=N/c2cc(S(=O)(=O)O)c3cccnc3c2O)ccc1/C=C/c1ccc(/N=N/c2cc(S(=O)(=O)O)c3cccnc3c2O)cc1S(=O)(=O)O [AB00444372] | 10.9 µM | > 50 µM |
| CCCCC(=O)Nc1cccc(NC(=O)c2ccc(OCC)c([N+](=O)[O-])c2)c1 [AB00318606] | 23.5 µg/mL | > 25 µg/mL |
| CC(=O)c1ccc2c3c(ccc(O)c13)CC2 [AB00293238] | 11.4 µg/mL | > 25 µg/mL |
| CCOc1nc2sc3c(c2c2ncnn12)CCCC3 [AB00372085] | 11.6 µg/mL | > 25 µg/mL |
| O=Cc1cc(Br)c(Sc2ncccn2)o1 [AB00326733] | 18.8 µg/mL | > 25 µg/mL |
| CC(=O)CCc1c(C)nc2ccc(Br)cc2c1S [AB00279343] | 20.7 µg/mL | > 25 µg/mL |
| COc1ccc(-c2cn3cccnc3n2)cc1 [AB00288908] | 21.6 µg/mL | – |
| Oc1ccc(O)cc1 [AB00053361] | 47.9 µM | > 50 µM |
| CC(C)(C)c1ccc(C(=O)N2CCC(C(=O)Nc3ccccc3Cl)CC2)cc1 [AB00317604] | 23.7 µg/mL | > 25 µg/mL |
| COc1ccc(-n2nnnc2SCCO)cc1 [AB00364099] | 19.2 µg/mL | > 25 µg/mL |
| Cc1ccc(O)c(C(=O)c2cc(C(=O)Nc3ccccc3C)c(=O)n(-c3ccccc3C)c2)c1 [AB00719359] | 29.8 µM | > 50 µM |
| Cc1ccc(C)n1-c1ccc(C(=O)O)cc1 [AB00275199] | 13 µg/mL | > 25 µg/mL |
| CCOc1ccccc1/C=C(\C#N)c1nc2sc3c(c2c(=O)[nH]1)CCCC3 [AB00726710] | 30.9 µM | > 50 µM |
| O=C(Nc1ccccc1Br)c1cnccn1 [AB00310846] | 19.6 µg/mL | > 25 µg/mL |
| COC(=O)Nc1ccc2ccccc2c1 [AB00314279] | 23.5 µg/mL | > 25 µg/mL |
| CCC(=O)Nc1ccc(-c2csc(N)n2)cc1 [AB00310808] | 23.6 µg/mL | > 25 µg/mL |
| Oc1cccc2ccc(N3CCOCC3)nc12 [AB00275625] | 15.2 µg/mL | > 25 µg/mL |
| Cc1ccc(S(=O)(=O)NC(C(=O)Oc2ccc3c(c2)oc(=O)c2ccccc23)c2ccccc2)cc1 (stereo not shown) [AB00297982] | 11 µg/mL | > 25 µg/mL |
| NC(=O)c1c(NC(=O)Nc2cccc(Cl)c2)sc2c1CCCC2 [AB00313952] | 2.72 µg/mL | > 25 µg/mL |
| C=CCN(CC=C)C(=O)c1ccc(OC)c(I)c1 [AB00362750] | 21 µg/mL | > 25 µg/mL |
| COC(=O)c1sc2cc(NC(=S)NCCCN3CCCC3=O)ccc2c1Cl [AB00351451] | 17.5 µg/mL | > 25 µg/mL |

More lines, main results first:

| EC50 [1] | Compound | CC50 at 6 days [2] |
| --- | --- | --- |
| 37.9 µM | COCCn1c(SCC(=O)NC2CCCc3ccccc32)nnc1-c1cccc(C)c1 (stereo not shown) [AB00728760] | > 50 µM |
| 24.7 µM | O=C(CCNC(=O)c1ccc(Br)cc1)NC1CCCc2ccccc21 (stereo not shown) [AB00739576] | > 50 µM |
| 43.3 µM | O=C(COC(=O)c1c2c(nc3ccccc13)/C(=C/c1cccs1)CC2)NCC(F)(F)F [AB00725240] | > 50 µM |
| 21.1 µg/mL | COc1ccc(CN2C(=O)CC(Cc3ccccc3)C2=O)cc1 (stereo not shown) [AB00307412] | > 25 µg/mL |
| 10.8 µM | COc1ccc(-c2nc(CSc3nnc(C4CC4)n3C3CC3)cs2)cc1 [AB00747970] | > 50 µM |
| 14.3 µg/mL | CCOc1ccccc1-c1cc(C(=O)O)c2cc(Br)ccc2n1 [AB00309817] | > 25 µg/mL |
| 21.1 µg/mL | Cc1cc(C)cc(OCC(=O)N2CCc3ccccc3C2)c1 [AB00315731] | > 25 µg/mL |
| 24.4 µg/mL | Cc1ccccc1C(=O)NC(=S)Nc1cccc(F)c1 [AB00319373] | > 25 µg/mL |
| 18.9 µg/mL | CCn1c(COc2ccccc2OC)nc2ccccc21 [AB00296345] | > 25 µg/mL |
